{"source": "patent US10202391B2", "about": "“Chemical compounds” (AstraZeneca AB, priority 2015, dated 2019)", "key": {"[1]": {"test_system": "phospho-p90RSK in A375 cell line", "experiment": "A375 Phospho-p90RSK Cellular Assay", "assay_type": "cell-based, human", "settings": "Homo sapiens, A375 cells, 2 hours incubation", "description": "(§1) All compounds or DMSO (dimethyl sulphoxide) for the ERK2 Mass Spectrometry and A375 phospho-p90RSK assays were dispensed from source plates containing compounds at 10 mM in 100% (v/v) DMSO or 100% DMSO, directly into assay plates using an Echo 555 Acoustic dispenser (Labcyte Inc™). Depending on the assay, two separate plate preparations were followed. In Workflow A, 10 mM compound stocks were diluted 1:100 using a fixed-tip 96-head Agilent VPrep liquid handler (Agilent Technologies, Santa Clara, Calif.) to give four intermediate dilutions (10 mM, 100 μM, 1 μM, 10 nM). In Workflow B, 10 mM compound stocks were diluted 1:10 using a Tecan Freedom Evo (Tecan Group Ltd., Switzerland), and then 1:100 using the Echo 555 and Labcyte LX to produce three intermediate dilutions across three Labcyte qualified source plates (1 mM, 10 μM, 100 nM). These intermediate dilution plates were then used by the Echo 555 to generate final assay-ready compound plates with a 12 point dose range (10, 3, 1, 0.25, 0.1, 0.03, 0.01, 0.0025, 0.001, 0.0003, 0.0001, 0.0000125 μM) in order to calculate compound IC50s, with a total DMSO concentration in the assay of 1%. For the ERK2 Mass Spectrometry assay Workflow B was used. For the A375 phospho-p90RSK cell assay, the intermediate 1:100 dilution plate described in Workflow A was used by the Echo to dispense compounds and DMSO directly into the cell plates with a 12 point dose range (30, 10, 3.125, 1.25, 0.3, 0.1, 0.03125, 0.0125, 0.003, 0.001, 0.0003125, 0.00003 μM) in order to calculate compound IC50's, with a total DMSO concentration in the assay of 0.3%.\nA375 Phospho-p90RSK Cellular Assay\nA375 cells were cultured in cell media composed of DMEM (Dulbecco's modified Eagle's medium), 10% (v/v) Foetal Calf Serum and 1% (v/v) L-Glutamine. After harvesting, cells were dispensed into black, 384-well Costar plates (#3712, Corning) to give 2400 cells per well in a total volume of 40 μl cell media, and were incubated overnight at 37° C., 90% relative humidity and 5% CO2 in a rotating incubator. Test compounds and reference controls were dosed directly into the cell plates using a Labcyte Echo 555 acoustic dispenser. The cell plates were then incubated for 2 hours at 37° C. before being fixed by the addition of 20 μl 12% formaldehyde in PBS/A (4% final concentration), followed by a 20 minute room temperature incubation, and then a 2× wash with 150 μl PBS/A (phosphate buffered saline containing albumin) using a BioTek ELx405 platewasher. Cells were permeabilised with 20 μl 0.1% Triton X-100 in PBS/A for 20 minutes at room temperature, and then washed 1× with 100 μl PBS/A. Primary phospho-p90RSK (Thr359) (D1E9) rabbit monoclonal antibody (#8753, Cell Signaling Technology) was diluted 1:1000 in assay buffer (0.05% (v/v) Tween, 5% (v/v) Foetal Calf Serum, in PBS/A), 20 μl added per well, and plates were incubated at 4° C. overnight. Cell plates were washed 2× with 200 μl PBS/T (phosphate buffered saline containing Tween-20), then 20 μl 1:500 dilution in assay buffer of Alexa Fluor® 647 goat anti-rabbit IgG secondary antibody (#A31573, Molecular Probes, Life Technologies), with a 1:5000 dilution of Hoechst 33342, was added per well. Following a 90 minute incubation at room temperature, plates were washed 2× with 200 μl PBS/T, and 40 μl PBS/A was added per well. Stained cell plates were covered with black lid seals, and then read on a Cellomics ArrayScan™ VTI imaging platform (Thermo Scientific), using an XF53 filter with 10× objective, with a LED light source set-up to analyse nuclear staining with Hoechst 33342 (405 nm) and secondary antibody staining of phospho-p90RSK (647 nm). Data was analysed and IC50's were calculated using Genedata Screener® software."}, "ERK2": {"molecular_target": "T1, ERK2 (Homo sapiens, UniProt P28482)", "T1 construct": "made in house", "T1 sequence (P28482 whole entry)": "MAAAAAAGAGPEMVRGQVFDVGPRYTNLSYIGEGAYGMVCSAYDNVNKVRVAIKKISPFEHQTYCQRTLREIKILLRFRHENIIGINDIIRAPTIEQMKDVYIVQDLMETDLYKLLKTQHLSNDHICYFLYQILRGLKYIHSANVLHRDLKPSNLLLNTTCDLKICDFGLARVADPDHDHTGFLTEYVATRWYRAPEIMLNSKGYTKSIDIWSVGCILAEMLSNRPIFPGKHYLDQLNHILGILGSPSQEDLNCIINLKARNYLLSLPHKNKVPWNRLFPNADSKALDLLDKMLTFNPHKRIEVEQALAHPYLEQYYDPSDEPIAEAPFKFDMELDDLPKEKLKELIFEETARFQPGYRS", "experiment": "ERK2 Rapidfire Mass Spectrometry Inhibition of Catalysis Assay", "assay_type": "biochemical", "settings": "1.2 nM ERK2, 16 μM Erktide, 120 μM ATP (measured Km), 15 minute pre-incubation; read-out: ERK2 Mass Spectrometry Enzyme IC50", "description": "as §1\nERK2 Rapidfire Mass Spectrometry Inhibition of Catalysis Assay\nMEK U911-activated ERK2 protein was expressed and purified in-house. Enzyme and substrate solutions were made up in assay buffer consisting of 50 mM Tris (pH 7.5), 10 mM MgCl2, 0.1 mM EGTA (ethylene glycol tetraacetic acid), 10 mM DTT (dithiothreitol) and 0.01% (v/v) CHAPS (3-[(3-Cholamidopropyl)dimethylammonio]-1-propanesulfonate). 1.2 nM ERK2 protein was prepared in assay buffer and 10 μl was dispensed into each well of a polypropylene, 384-well plate (#781201, Greiner) containing test and reference control compounds. […] The reaction was allowed to progress for 20 minutes at room temperature before being quenched by the addition of 80 al 1% (v/v) formic acid. The assay plates were then run on the RapidFire Mass Spectrometry platform (Agilent) to measure substrate (unphosphorylated Erktide) and product (phosphorylated Erktide) levels. Data was analysed and IC50's (half maximal inhibitory concentration) were calculated using Genedata Screener® software."}}, "data": [{"smiles": "Cc1cccc(CN2CCn3cc(-c4ccnc(Nc5ccnn5C)n4)nc3C2=O)n1", "note": "[Example 1, 2-(2-((1-Methyl-1H-pyrazol-5-yl)amino)pyrimidin-4-yl)-7-((6-methylpyridin-2-yl)methyl)-6,7-dihydroimidazo[1,2-a]pyrazin-8(5H)-one]", "values": [{"measurement": "IC50", "setting": "[1]; A-375", "value": 17000, "unit": "nM"}, {"measurement": "IC50", "setting": "ERK2", "value": 17.4, "unit": "nM"}]}, {"smiles": "C[C@H]1Cn2cc(-c3ccnc(Nc4ccnn4C)n3)nc2C(=O)N1Cc1cccc(Cl)c1", "note": "[Example 2, (S)-7-(3-Chlorobenzyl)-6-methyl-2-(2-((1-methyl-1H-pyrazol-5-yl)amino)pyrimidin-4-yl)-6,7-dihydroimidazo[1,2-a]pyrazin-8(5H)-one]", "values": [{"measurement": "IC50", "setting": "[1]; A-375", "value": 86, "unit": "nM"}, {"measurement": "IC50", "setting": "ERK2", "value": 0.7, "unit": "nM"}]}, {"smiles": "C[C@H]1Cn2cc(-c3ccnc(Nc4ccnn4C)n3)nc2C(=O)N1Cc1ccc(F)c(Cl)c1", "note": "[Example 3, (S)-7-(3-Chloro-4-fluorobenzyl)-6-methyl-2-(2-((1-methyl-1H-pyrazol-5-yl)amino)pyrimidin-4-yl)-6,7-dihydroimidazo[1,2-a]pyrazin-8(5H)-one]", "values": [{"measurement": "IC50", "setting": "[1]; A-375", "value": 81, "unit": "nM"}, {"measurement": "IC50", "setting": "ERK2", "value": 0.5, "unit": "nM"}]}, {"smiles": "C[C@H]1Cn2cc(-c3ccnc(Nc4ccnn4C)n3)nc2C(=O)N1Cc1ccc(F)c(F)c1", "note": "[Example 4, (S)-7-(3,4-Difluorobenzyl)-6-methyl-2-(2-((1-methyl-1H-pyrazol-5-yl)amino)pyrimidin-4-yl)-6,7-dihydroimidazo[1,2-a]pyrazin-8(5H)-one]", "values": [{"measurement": "IC50", "setting": "[1]; A-375", "value": 630, "unit": "nM"}, {"measurement": "IC50", "setting": "ERK2", "value": 1.8, "unit": "nM"}]}, {"smiles": "Cc1cnc(Nc2ccnn2C)nc1-c1cn2c(n1)C(=O)N(Cc1cccc(C(F)(F)F)n1)CC2", "note": "[Example 5, 2-(5-Methyl-2-((1-methyl-1H-pyrazol-5-yl)amino)pyrimidin-4-yl)-7-((6-(trifluoromethyl)pyridin-2-yl)methyl)-6,7-dihydroimidazo[1,2-a]pyrazin-8(5H)-one]", "values": [{"measurement": "IC50", "setting": "[1]; A-375", "value": 110, "unit": "nM"}, {"measurement": "IC50", "setting": "ERK2", "value": 2, "unit": "nM"}]}, {"smiles": "C[C@H]1Cn2cc(-c3nc(Nc4ccnn4C)ncc3Cl)nc2C(=O)N1Cc1ccc(F)c(F)c1", "note": "[Example 6, (S)-2-(5-Chloro-2-((1-methyl-1H-pyrazol-5-yl)amino)pyrimidin-4-yl)-7-(3,4-difluorobenzyl)-6-methyl-6,7-dihydroimidazo[1,2-a]pyrazin-8(5H)-one]", "values": [{"measurement": "IC50", "setting": "[1]; A-375", "value": 25, "unit": "nM"}, {"measurement": "IC50", "setting": "ERK2", "value": 0.6, "unit": "nM"}]}, {"smiles": "COc1cccc(CN2C(=O)c3nc(-c4nc(Nc5ccnn5C)ncc4Cl)cn3C[C@@H]2C)c1", "note": "[Example 7, (S)-2-(5-Chloro-2-((1-methyl-1H-pyrazol-5-yl)amino)pyrimidin-4-yl)-7-(3-methoxybenzyl)-6-methyl-6,7-dihydroimidazo[1,2-a]pyrazin-8(5H)-one]", "values": [{"measurement": "IC50", "setting": "[1]; A-375", "value": 38, "unit": "nM"}, {"measurement": "IC50", "setting": "ERK2", "value": 0.5, "unit": "nM"}]}, {"smiles": "C[C@H]1Cn2cc(-c3nc(Nc4ccnn4C)ncc3Cl)nc2C(=O)N1Cc1ccnc(C(F)(F)F)n1", "note": "[Example 8, (S)-2-(5-chloro-2-((1-methyl-1H-pyrazol-5-yl)amino)pyrimidin-4-yl)-6-methyl-7-((2-(trifluoromethyl)pyrimidin-4-yl)methyl)-6,7-dihydroimidazo[1,2-a]pyrazin-8(5H)-one]", "values": [{"measurement": "IC50", "setting": "[1]; A-375", "value": 210, "unit": "nM"}, {"measurement": "IC50", "setting": "ERK2", "value": 1.1, "unit": "nM"}]}, {"smiles": "C[C@H]1Cn2cc(-c3nc(Nc4ccnn4C)ncc3Cl)nc2C(=O)N1Cc1cccc(C(F)F)n1", "note": "[Example 9, (S)-2-(5-Chloro-2-((1-methyl-1H-pyrazol-5-yl)amino)pyrimidin-4-yl)-7-((6-(difluoromethyl)pyridin-2-yl)methyl)-6-methyl-6,7-dihydroimidazo[1,2-a]pyrazin-8(5H)-one]", "values": [{"measurement": "IC50", "setting": "[1]; A-375", "value": 190, "unit": "nM"}, {"measurement": "IC50", "setting": "ERK2", "value": 0.5, "unit": "nM"}]}, {"smiles": "C[C@H]1Cn2cc(-c3nc(Nc4ccnn4C)ncc3Cl)nc2C(=O)N1Cc1cccc(C(F)(F)F)n1", "note": "[Example 10]", "values": [{"measurement": "IC50", "setting": "[1]; A-375", "value": 55, "unit": "nM"}, {"measurement": "IC50", "setting": "ERK2", "value": 1.1, "unit": "nM"}]}, {"smiles": "Cc1cccc(CN2C(=O)c3nc(-c4nc(Nc5ccnn5C)ncc4Cl)cn3C[C@@H]2C)n1", "note": "[Example 11, (S)-2-(5-chloro-2-((1-methyl-1H-pyrazol-5-yl)amino)pyrimidin-4-yl)-6-methyl-7-((6-methylpyridin-2-yl)methyl)-6,7-dihydroimidazo[1,2-a]pyrazin-8(5H)-one]", "values": [{"measurement": "IC50", "setting": "[1]; A-375", "value": 150, "unit": "nM"}, {"measurement": "IC50", "setting": "ERK2", "value": 0.8, "unit": "nM"}]}, {"smiles": "Cc1cnc(Nc2ccnn2C)nc1-c1cn2c(n1)C(=O)N(Cc1ccc(F)c(Cl)c1)CC2", "note": "[Example 12, 7-(3-Chloro-4-fluorobenzyl)-2-(5-methyl-2-((1-methyl-1H-pyrazol-5-yl)amino)pyrimidin-4-yl)-6,7-dihydroimidazo[1,2-a]pyrazin-8(5H)-one]", "values": [{"measurement": "IC50", "setting": "[1]; A-375", "value": 3, "unit": "nM"}, {"measurement": "IC50", "setting": "ERK2", "value": 0.6, "unit": "nM"}]}, {"smiles": "Cc1cnc(Nc2ccnn2C)nc1-c1cn2c(n1)C(=O)N(Cc1cccc(Cl)c1)CC2", "note": "[Example 13, 7-(3-Chlorobenzyl)-2-(5-methyl-2-((1-methyl-1H-pyrazol-5-yl)amino)pyrimidin-4-yl)-6,7-dihydroimidazo[1,2-a]pyrazin-8(5H)-one]", "values": [{"measurement": "IC50", "setting": "[1]; A-375, 2 h", "value": 12, "unit": "nM"}, {"measurement": "IC50", "setting": "ERK2", "value": 0.3, "unit": "nM"}]}, {"smiles": "Cc1cnc(Nc2ccnn2C)nc1-c1cn2c(n1)C(=O)N(Cc1cccc(C(F)F)c1)CC2", "note": "[Example 14, 7-(3-(Difluoromethyl)benzyl)-2-(5-methyl-2-((1-methyl-1H-pyrazol-5-yl)amino)pyrimidin-4-yl)-6,7-dihydroimidazo[1,2-a]pyrazin-8(5H)-one]", "values": [{"measurement": "IC50", "setting": "[1]; A-375", "value": 24, "unit": "nM"}, {"measurement": "IC50", "setting": "ERK2", "value": 0.3, "unit": "nM"}]}, {"smiles": "Cc1cnc(Nc2ccnn2C)nc1-c1cn2c(n1)C(=O)N(Cc1cccc(C(F)F)n1)CC2", "note": "[Example 15, 7-((6-(Difluoromethyl)pyridin-2-yl)methyl)-2-(5-methyl-2-((1-methyl-1H-pyrazol-5-yl)amino)pyrimidin-4-yl)-6,7-dihydroimidazo[1,2-a]pyrazin-8(5H)-one]", "values": [{"measurement": "IC50", "setting": "[1]; A-375", "value": 150, "unit": "nM"}, {"measurement": "IC50", "setting": "ERK2", "value": 0.6, "unit": "nM"}]}, {"smiles": "COC[C@H]1Cn2cc(-c3nc(Nc4ccnn4C)ncc3C)nc2C(=O)N1Cc1cccc(C(F)F)n1", "note": "[Example 16, (R)-7-((6-(Difluoromethyl)pyridin-2-yl)methyl)-6-(methoxymethyl)-2-(5-methyl-2-((1-methyl-1H-pyrazol-5-yl)amino)pyrimidin-4-yl)-6,7-dihydroimidazo[1,2-a]pyrazin-8(5H)-one]", "values": [{"measurement": "IC50", "setting": "[1]; A-375", "value": 120, "unit": "nM"}, {"measurement": "IC50", "setting": "ERK2", "value": 1.1, "unit": "nM"}]}, {"smiles": "COC[C@H]1Cn2cc(-c3nc(Nc4ccnn4C)ncc3C)nc2C(=O)N1Cc1cccc(Cl)c1", "note": "[Example 17, (R)-7-(3-Chlorobenzyl)-6-(methoxymethyl)-2-(5-methyl-2-((1-methyl-1H-pyrazol-5-yl)amino)pyrimidin-4-yl)-6,7-dihydroimidazo[1,2-a]pyrazin-8(5H)-one]", "values": [{"measurement": "IC50", "setting": "[1]; A-375", "value": 5.2, "unit": "nM"}, {"measurement": "IC50", "setting": "ERK2", "value": 0.9, "unit": "nM"}]}, {"smiles": "COC[C@@H]1Cn2cc(-c3nc(Nc4ccnn4C)ncc3C)nc2C(=O)N1Cc1ccc(F)c(F)c1", "note": "[Example 35, Ethanesulfonic acid adduct of (S)-7-(3,4-difluorobenzyl)-6-(methoxymethyl)-2-(5-methyl-2-((1-methyl-1H-pyrazol-5-yl)amino)pyrimidin-4-yl)-6,7-dihydroimidazo[1,2-a]pyrazin-8(5H)-one]", "values": [{"measurement": "IC50", "setting": "[1]; A-375", "value": 93, "unit": "nM"}]}]}
